Data on 32 compounds can be found in paper PMC8243516, “Inhibition of lysosomal phospholipase A2 predicts drug-induced phospholipidosis” (Journal of Lipid Research, 2021).

The IC50 is the concentration that inhibits the measured activity by half.

Read-outs that look alike come from different tables or passages of the source.

For one data set, the target named is T1, LPLA2 (Mus musculus, UniProt Q8VEB4).
T1 construct: purchased Proteos Inc. (Kalamazoo, MI)
T1 sequence (Q8VEB4 34-412): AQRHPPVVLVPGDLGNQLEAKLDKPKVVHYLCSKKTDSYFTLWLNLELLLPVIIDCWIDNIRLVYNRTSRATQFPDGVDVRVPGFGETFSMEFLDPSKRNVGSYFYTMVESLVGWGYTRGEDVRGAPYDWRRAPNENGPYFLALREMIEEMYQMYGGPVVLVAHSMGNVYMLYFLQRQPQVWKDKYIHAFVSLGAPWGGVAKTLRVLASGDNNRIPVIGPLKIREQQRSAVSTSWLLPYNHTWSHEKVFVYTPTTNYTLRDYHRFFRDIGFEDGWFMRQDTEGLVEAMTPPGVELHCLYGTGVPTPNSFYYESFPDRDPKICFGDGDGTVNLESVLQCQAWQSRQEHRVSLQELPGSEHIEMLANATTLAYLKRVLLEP
The data set can be described thus: LPLA2 thermal stability measurement (SYPRO Orange Tm). The data set is classed as binding.

The target of data set [1] is T2, recombinant mouse LPLA2 (PLA2G15) (Mus musculus, UniProt Q8VEB4).
T2 construct: purchased Proteos Inc. (Kalamazoo, MI)
T2 sequence (Q8VEB4 34-412): T1 sequence (Q8VEB4 34-412)
Kind of data set: Transacylase activity of LPLA2 (1-O-acyl-N-acetylsphingosine synthase, cell-free liposome assay). The format is biochemical.

The conditions of data set [2]: cited from earlier work.
The mark [3] stands for this setting: LPLA2 dependent 1-O-acyl N-acetylsphingosine synthase activity, read-out: LPLA2 IC50.
Setting [4] is: ref Pubchem and chEMBL database.
Where [5] appears, read: 1-O-acyl N-acetylsphingosine synthase activity, pH 4.5, DOPC/sulfatide liposomes, read-out: LPLA2 IC50.
The mark [6] stands for this setting: ref Pubchem and chEMBL databases.

On to `OC[C@H]1OC(O)[C@H](O)[C@@H](O)[C@@H]1O` (mixture of isomers) [D-( ± )-glucose], for which, on LPLA2 (N=3 ± SD), the “(ΔTm)c-(ΔTm)d, difference in melting temperature of LPLA2 alone or in the presence of drug” value (shortened to “(ΔTm)c-(ΔTm)d, difference”) is 0 °C.
In the case of `Cl.NCCc1ccc(O)c(O)c1` [3-Hydroxy-tyramine hydrochloride], in data set [1] (setting [3]), the IC50 stood at 56.1 µM. Further, the “pKa (basic)” value in data set [2] (setting [4]) was 9.27.
Regarding `NCCc1cc(O)c(O)cc1O` [6-Hydroxy-dopamine], in data set [1] (setting [3]), the half-maximal inhibitory concentration (IC50) is 88 µM. For the same compound, the “pKa (basic)” value in data set [2] (setting [4]) is recorded as 9.85.
With `Nc1c(Br)cc(Br)cc1CN[C@H]1CC[C@H](O)CC1` [Ambroxol, 2-amino-3,5-dibromo-N-(trans-4-hydroxycyclohexyl) benzylamine], in data set [1] (setting [5]), the IC50 is 59 µM. Further, in data set [2] (setting [6]), the “pKa (basic)” value is given as 9.01. Besides, the “(ΔTm)c-(ΔTm)d, difference” value at LPLA2 (N=3 ± SD) stood at 0.68 ± 0.5 °C.
Consider `CC(C)(C#N)c1cc(Cn2cncn2)cc(C(C)(C)C#N)c1` [Anastrozole, 2;2″-[5-(1H-1;2;4-Triazol-1-ylmethyl)-1,3-phenylene]bis(2-methyl-propiononitrile)], for which, in data set [1] (setting [5]), the IC50 is 4.82 µM. For the same compound, the “pKa (basic)” value in data set [2] (setting [6]) was 2. Moreover, the “(ΔTm)c-(ΔTm)d, difference” value at LPLA2 (N=3 ± SD) is -1.05 ± 0.1 °C.
On to `CN1[C@@H]2CC[C@H]1C[C@@H](OC(=O)C(CO)c1ccccc1)C2` (some centres unmarked) [Atropine], for which the 50% inhibitory concentration (IC50) in data set [1] (LPLA2 IC50) amounted to 1870 µM.
For the compound `CC(Cc1cccc(C(F)(F)F)c1)NCCOC(=O)c1ccccc1` (centres unmarked) [Benfluorex, N-(1-methyl-2-(3-[trifluoromethyl]-phenyl)ethyl)amino ethanol benzoate ester], the IC50 in data set [1] (setting [5]) worked out at 19.9 µM. Besides, the “pKa (basic)” value in data set [2] (setting [6]) is 9.14.
Consider `CN1[C@@H]2CC[C@H]1C[C@@H](OC(c1ccccc1)c1ccccc1)C2` [Benztropine], for which the “pKa (basic)” value in data set [2] (setting [4]) was 9.54.
In the case of `C(=Cc1ccccc1)CN1CCN(C(c2ccccc2)c2ccccc2)CC1` [Cinnarizine, 1-(diphenylmethyl)-4-(3-phenylprop-2-en-1-yl) piperazine], the “pKa (basic)” value in data set [2] (setting [6]) was 8.44.
For `CCN(CC)CCOc1ccc(C(=C(Cl)c2ccccc2)c2ccccc2)cc1` [Clomifene], in data set [2] (setting [4]), the “pKa (basic)” value is recorded as 9.31.
On to `O=C(O)Cc1ccccc1Nc1c(Cl)cccc1Cl` [Diclofenac], for which the IC50 in data set [1] (setting [3]) stood at 7.2 µM. Moreover, the “(ΔTm)c-(ΔTm)d, difference” value at LPLA2 (N=3 ± SD) was 1.70 ± 0.5 °C.
With `CC(C)N(CCC(C(N)=O)(c1ccccc1)c1ccccn1)C(C)C` (centres unmarked) [Disopyramide], the “(ΔTm)c-(ΔTm)d, difference” value on LPLA2 was found to be 0 °C.
As to `Fc1ccc(C(c2ccc(F)cc2)N2CCN(C/C=C/c3ccccc3)CC2)cc1` [Flunarizine, 1-[bis(4-fluorophenyl)methyl]-4-[(2E)-3-phenylprop-2-en-1-yl]piperazine], in data set [2] (setting [6]), the “pKa (basic)” value was 7.6.
`NCC1(CC(=O)O)CCCCC1` [Gabapentin]: in data set [1] (setting [3]), the IC50 worked out at 37.4 µM. Moreover, the “pKa (basic)” value in data set [2] (setting [4]) is 9.91.
`COc1ccc2c(c1)[nH]c1c(C)nccc12` [Harmine]: the IC50 in data set [1] (LPLA2 IC50, LPLA2 dependent 1-O-acyl N-acetylsphingosine synthase activity) was found to be 633 µM. The “(ΔTm)c-(ΔTm)d, difference” value at LPLA2 (N=3 ± SD) is -1.94 ± 0.9 °C.
`CN(C)C(=O)C(CCN1CCC(O)(c2ccc(Cl)cc2)CC1)(c1ccccc1)c1ccccc1` [Loperamide, 4-[4-(4-chlorophenyl)-4-hydroxypiperidin-1-yl]-N,N-dimethyl-2,2-diphenylbutanamide]: in data set [2] (setting [6]), the “pKa (basic)” value is given as 9.41.
In the case of `Cc1ccccc1C(OCCN(C)C)c1ccccc1` (centres unmarked) [Orphenadrine], the “pKa (basic)” value in data set [2] (setting [4]) was 8.87.
`CN1CCN(CCCN2c3ccccc3Sc3ccc(Cl)cc32)CC1` [Prochlorperazine]: the “pKa (basic)” value in data set [2] (setting [4]) was 8.39.
As for `OC(CCN1CCCC1)(c1ccccc1)C1CCCCC1` (centres unmarked) [Procyclidine], in data set [2] (setting [4]), the “pKa (basic)” value is listed as 13.84. Moreover, on LPLA2 (N=3 ± SD), the “(ΔTm)c-(ΔTm)d, difference” value came out at 0.51 ± 0.0 °C.
In the case of `CCN(CC)C(C)CN1c2ccccc2Sc2ccccc21` (centres unmarked) [Profenamine, diethyl[1-(10H-phenothiazin-10-yl)propan-2-yl]amine], the IC50 in data set [1] (setting [5]) is 8.7 µM. Further, the “pKa (basic)” value in data set [2] (setting [6]) is 9.6.
Take `CCCNCC(O)COc1ccccc1C(=O)CCc1ccccc1` (centres unmarked) [Propafenone, 1-{2-[2-hydroxy-3-(propylamino)propoxy]phenyl}-3-phenylpropan-1-one]: the IC50 in data set [1] (setting [5]) amounted to 48.2 µM.
As for `CSC(=N)N` [S-methylisothiourea], the “(ΔTm)c-(ΔTm)d, difference” value at LPLA2 (N=3 ± SD) was -2.05 ± 0.6 °C.
Turning to `Cc1ccc(C(=O)Nc2ccc(S(=O)(=O)O)c3cc(S(=O)(=O)O)cc(S(=O)(=O)O)c23)cc1NC(=O)c1cccc(NC(=O)Nc2cccc(C(=O)Nc3cc(C(=O)Nc4ccc(S(=O)(=O)O)c5cc(S(=O)(=O)O)cc(S(=O)(=O)O)c45)ccc3C)c2)c1` [Suramin, 8-{4-methyl-3-[3-({[3-({2-methyl-5-[(4,6,8-trisulfonaphthalen-1yl)carbamoyl]phenyl}carbamoyl)phenyl]carbamoyl}amino)benzamido]benzamido}naphthalene-1,3,5-trisulfonic acid], the IC50 in data set [1] (setting [5]) stood at 35.5 µM. The “(ΔTm)c-(ΔTm)d, difference” value on LPLA2 (N=3 ± SD) stood at 0 °C.
Regarding `CSc1ccc2c(c1)N(CCC1CCCCN1C)c1ccccc1S2` (centres unmarked) [Thioridazine, 10-[2-(1-methylpiperidin-2-yl)ethyl]-2-(methylsulfanyl) -10H-phenothiazine], the “pKa (basic)” value in data set [2] (setting [6]) is recorded as 8.93.
Regarding `O=c1ccn([C@@H]2O[C@H](CO)[C@@H](O)[C@H]2O)c(=O)[nH]1` [Uridine], the “pKa (basic)” value in data set [2] (setting [4]) is -3.
For `CC[C@]1(O)C[C@@H]2CN(CCc3c([nH]c4ccccc34)[C@@](C(=O)OC)(c3cc4c(cc3OC)N(C)[C@H]3[C@@](O)(C(=O)OC)[C@H](OC(C)=O)[C@]5(CC)C=CCN6CC[C@]43[C@@H]65)C2)C1` [Vinblastine, methyl (1R,9R,10S,11R,12R,19R)-11-(acetyloxy)-12-ethyl-4-[(13S,15R,17S)-17-ethyl-17-hydroxy-13-(methoxycarbonyl)-1,11-diazatetracyclo [13.3.1.0ˆ[1].0ˆ[1]]nonadeca-4(12),5(10),6,8-tetraen-13-yl]-10-hydroxy-5-methoxy-8-methyl-8,16-diazapentacyclo [10.6.1.0ˆ[1].0ˆ[1] .0ˆ[3]] nonadeca-2,4,6,13-tetraene-10-carboxylate], the half-inhibitory concentration (IC50) in data set [1] (setting [5]) amounted to 2120 µM. In addition, the “LPLA2 inhibition (in words)” value in data set [1] (acyl transferase activity) is given as “millimolar concentrations”. Moreover, the “(ΔTm)c-(ΔTm)d, difference” value at LPLA2 (N=3 ± SD) is -0.24 ± 0.0 °C.
For the compound `O=C1C(O)=C([C@H]2CC[C@H](c3ccc(Cl)cc3)CC2)C(=O)c2ccccc21` [atovaquone], on LPLA2 (N=3 ± SD), the “(ΔTm)c-(ΔTm)d, difference” value is -0.17 ± 0.1 °C.
As for `CC(C)COCC(CN(Cc1ccccc1)c1ccccc1)N1CCCC1` (centres unmarked) [bepridil], the “(ΔTm)c-(ΔTm)d, difference” value on LPLA2 (N=3 ± SD) was 2.10 ± 0.6 °C.
On to `CC(C)C[C@H](N)C(=O)O` [l-leucine], for which, on LPLA2 (N=3 ± SD), the “(ΔTm)c-(ΔTm)d, difference” value was 1.86 ± 0.6 °C.
`CN1CCc2c(c3ccccc3n2Cc2ccccc2)C1` [mebhydroline]: the “(ΔTm)c-(ΔTm)d, difference” value at LPLA2 (N=3 ± SD) came to 0.84 ± 0.1 °C.
As to `CCN(CC)CCc1nc(-c2ccccc2)no1` [oxolamine], at LPLA2 (N=3 ± SD), the “(ΔTm)c-(ΔTm)d, difference” value is -0.89 ± 0.0 °C.
Regarding `O=c1ccn([C@@H]2O[C@H](CO)[C@@H](O)[C@H]2O)c(=O)[nH]1` [uridine], the “(ΔTm)c-(ΔTm)d, difference” value on LPLA2 (N=3 ± SD) was -1.71 ± 0.1 °C.
